Literature values, collected in patent US6783772B1, “Pharmaceutical preparations containing alendronate sodium” (priority 2003, dated 2004).

Tests used:
[1] = system: bone resorption; conditions: 40 mg once daily for six months
[2] = system: bone resorption; conditions: postmenopausal women; 5, 20 and 40 mg daily oral for six weeks

NCCCC(O)(P(=O)([O-])O)P(=O)(O)O.O.O.O.[Na+] [Alendronate sodium, (4-amino-1-hydroxybutylidene) bisphosphonic acid monosodium salt trihydrate]
serum alkaline phosphotase and urinary markers of bone collagen degradation [1]: highly significant decreases
serum calcium phosphate ([1]; clinical trials): generally mild, transient, decreases
biochemical changes (urinary calcium, urinary markers of bone collagen degradation) [2]: dose-dependent inhibition of bone resorption
